Experimental data as given in paper PMC8399565, “Fluorescence Cross-Correlation Spectroscopy Yields True Affinity and Binding Kinetics of Plasmodium Lactate Transport Inhibitors” (Pharmaceuticals, 2021).
“Also recorded” adds a separate entry of the source. Where two headings read alike, the source gives them in different places.

Columns and labels:
PfFNT wt-GFP = biological target: T1, PfFNT wt-GFP (Plasmodium falciparum, UniProt O77389); assay: FCCS equilibrium saturation binding to solubilized PfFNT wildtype; conditions: for Active Receptor (%): fraction of PfFNT-GFP involved in binding at saturation; for obtained concentration of complexes in saturation binding: same sample of solubilized membranes for both tracers
T1 construct: The DNA of full-length PfFNT from Plasmodium falciparum 3D7 was cloned as a C-terminal GFP fusion; expressed in transfected cells; intact cells for imaging, LMNG-solubilized membranes or lysates for FCCS
T1 sequence (O77389 whole entry, the tested form may be a part): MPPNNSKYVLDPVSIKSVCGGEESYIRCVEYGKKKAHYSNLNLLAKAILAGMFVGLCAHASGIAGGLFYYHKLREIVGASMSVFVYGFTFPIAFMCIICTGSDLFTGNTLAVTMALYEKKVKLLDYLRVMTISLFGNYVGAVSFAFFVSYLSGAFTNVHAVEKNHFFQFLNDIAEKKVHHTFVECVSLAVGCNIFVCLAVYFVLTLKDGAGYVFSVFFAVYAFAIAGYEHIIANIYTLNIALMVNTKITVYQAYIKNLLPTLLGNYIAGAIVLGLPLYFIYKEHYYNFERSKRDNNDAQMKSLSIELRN
Description: A total of 20 µL of solubilized membranes from HEK cells expressing PfFNT wildtype or G107S were transferred to a glass-bottom 384-well microtiter plate and analyzed for expression levels via GFP fluorescence intensity as well as diffusion times. This yielded a PfFNT protein concentration of 10 nM after membrane preparation and solubilization. The average dwell time was determined to 373 µs, which is in good agreement with membrane proteins of equal size. The signal fluctuations could be fitted to a 1-component diffusion model, indicating homogeneously monodisperse proteins (Figure S2).
Next, we determined inhibitor binding affinities for both PfFNT and its G107S mutant. Solubilized cell membranes containing PfFNT-GFP at a concentration of 10 nM were incubated for 1 h at ambient temperature with increasing concentrations of labeled inhibitor molecules to obtain saturation binding curves and to calculate the dissociation constant (KD) of the interactions. Equilibrium binding experiments were pipetted in biological triplicates and carried out and analyzed as described in Antoine et al..
A cell pellet was resuspended in 1 mL of ice-cold TBS (50 mM Tris-HCl (pH 7.4) and 150 mM NaCl) supplemented with cOmplete™ Protease Inhibitor Cocktail (cat. no 11697498001, Roche, Switzerland) and broken by sonication on ice, using an Ultrasonic homogenizer SONOPULS HD 2070 (Bandelin, Germany). Cell debris was removed by centrifugation for 5 min at 1100× g at 4 °C, and membranes were harvested from the cleared lysate by subsequent centrifugation at 21,000× g. The resulting pellet containing cellular membranes was lysed using a Dounce homogenizer. The receptor was solubilized by incubation in 1% LMNG (cat. no NG310, Anatrace, USA) or in another detergent (DDM, DM, CHAPS, CHS, LDAO) when conducting tests to determine the best solubilization conditions. The insolubilized membrane material was removed by centrifugation for 1 h at 21,000× g at 4 °C, and the supernatant was collected and directly subjected to FCCS analysis or stored at −80 °C.
(§1) FCCS measurements were conducted in 384-well glass-bottom plates (cat. no PS96B-G175, SWISSCI, Switzerland) using an Insight plate reader (Evotec Technologies, Germany) fitted with a U-Apo300 40x water immersion lens, NA 1.15 (Olympus, Japan). The 488 nm laser line of an argon-ion laser and the light of a 633 nm helium–neon laser were used for excitation. Fluorescence fluctuations were recorded for 8 s with 12 repetitions and analyzed afterward using FCS+plus Analyze 1.1P (Evotec technologies, Version 1.2.5g). FCCS analysis was carried out as described previously. Briefly, for measuring the dissociation constant (KD), a titration series of 12 dilutions was prepared, where the concentration of the lysates obtained from HEK cells expressing GFP-fusions of PfFNT WT and G107S was kept constant, and the concentration of the labeled binding partner (BH296-DY647 and BH267.meta-DY647, respectively) was varied. The IC50 values were calculated by plotting the concentration from the dual labeled complex against the concentration of the competitor titrated over a concentration range from 10 µM to 10 pM. Samples were incubated for 1 h at room temperature prior to FCCS measurements to allow the formation of drug target complexes. From the resulting IC50 values, the Ki values were obtained by application of the Cheng Prusoff equation [17]. To assess the rate constants, time-resolved measurements were carried out at different concentrations of the labeled ligand. […] All KD and IC50 values, as well as kinetic parameters, were determined from three independently repeated experiments. The figures show one representative measurement; however, the calculated KD, Ki, kon and koff values are presented as an average of the three measurements ± SD. Error bars denote ± SEM.

PfFNT G107S-GFP = biological target: T2, PfFNT G107S-GFP (Plasmodium falciparum, UniProt O77389, G107S); assay: FCCS equilibrium competition binding, PfFNT G107S mutant
T2 construct: The DNA of full-length PfFNT from Plasmodium falciparum 3D7 was cloned as a C-terminal GFP fusion; expressed in transfected cells; intact cells for imaging, LMNG-solubilized membranes for FCCS
T2 sequence (O77389 whole entry G107S, the tested form may be a part): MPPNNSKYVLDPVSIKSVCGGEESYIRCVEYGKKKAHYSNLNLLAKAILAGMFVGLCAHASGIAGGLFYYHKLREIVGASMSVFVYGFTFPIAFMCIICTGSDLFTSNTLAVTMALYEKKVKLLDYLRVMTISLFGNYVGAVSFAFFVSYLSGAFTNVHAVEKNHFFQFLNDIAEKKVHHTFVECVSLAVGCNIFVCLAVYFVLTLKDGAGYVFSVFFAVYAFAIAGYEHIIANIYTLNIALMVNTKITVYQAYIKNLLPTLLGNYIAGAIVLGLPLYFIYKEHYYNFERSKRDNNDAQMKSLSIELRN
Description: Figure 4 Affinity determination of BH296, BH267.meta to PfFNT and PfFNT G107S, and equilibrium saturation binding of BH296 and BH267.meta to PfFNT and PfFNT G107S. […] BH267.meta bound to 100% of the GFP-fusions of wildtype PfFNT. […] (c) Membrane preparations containing 10 nM of PfFNT-GFP were incubated with 70 nM BH296-DY647, and associated complexes competed with free compounds BH267.meta and BH296 to assess their Ki values. […] (e) Membrane preparations containing GFP fusions of mutant PfFNT G107S were mixed with 150 nM of the labeled BH267.meta tracer and competed with BH267.meta and BH296.
The Ki values calculated for the interaction of BH296 and BH267.meta to mutant PfFNT G107S confirm the affinities observed for the direct interaction with labeled inhibitors.
as §1, with “varied.” for “varied. The IC50 values were calculated by plotting the concentration from the dual labeled complex against the concentration of the competitor titrated over a concentration range from 10 µM to 10 pM. Samples were incubated for 1 h at room temperature prior to FCCS measurements to allow the formation of drug target complexes. From the resulting IC50 values, the Ki values were obtained by application of the Cheng Prusoff equation [17]. To assess the rate constants, time-resolved measurements were carried out at different concentrations of the labeled ligand.”, “Error bars denote ± SEM.” left out

[1] = test system: FNT-type lactate transporters of the remaining four human-pathogenic plasmodia; conditions: cited from earlier work
hsMCT4 = biological target: T3, hsMCT4 (Homo sapiens, UniProt O15427); assay: Live cell confocal imaging, co-localization with hsMCT4-GFP in HEK cells; type: cell-based; conditions: 50 nM BH296-DY647, hsMCT4-GFP in HEK cells
T3 construct: expressed in transfected cells
T3 sequence (O15427 1-465): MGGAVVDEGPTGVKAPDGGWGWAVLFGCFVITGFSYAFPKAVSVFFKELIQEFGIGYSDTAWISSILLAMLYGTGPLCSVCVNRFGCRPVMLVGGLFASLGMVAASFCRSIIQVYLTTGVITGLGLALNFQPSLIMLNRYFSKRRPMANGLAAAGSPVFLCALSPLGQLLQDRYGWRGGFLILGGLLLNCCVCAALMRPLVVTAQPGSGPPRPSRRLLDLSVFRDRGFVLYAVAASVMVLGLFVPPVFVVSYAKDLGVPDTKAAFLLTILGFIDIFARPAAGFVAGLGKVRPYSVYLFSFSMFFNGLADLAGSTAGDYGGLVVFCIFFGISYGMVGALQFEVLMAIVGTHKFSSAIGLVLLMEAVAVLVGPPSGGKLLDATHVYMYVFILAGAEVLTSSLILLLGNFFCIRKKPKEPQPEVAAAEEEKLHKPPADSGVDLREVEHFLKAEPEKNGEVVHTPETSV
Description: The monocarboxylate transporter hsMCT4 is a human functional homolog of PfFNT, but both proteins show no similarity on the basis of their primary sequence or transport mechanism.
The confocal laser scanning microscopy was performed on an LSM 510 confocal microscope connected to an Axiovert 200M equipped with a C-Apochromat 40×/1.2 W water immersion objective (Carl Zeiss, Germany). The red fluorophore (Dy-647) was excited using a 633 nm helium–neon laser, whereas the green fluorophore (GFP) was excited using a 488 nm argon-ion laser.

Row | Compound | Kd (PfFNT wt-GFP; fluorescent probe titrated against 10 nM PfFNT-GFP, 1% LMNG, 1 h ambient temperature, read-out: KD (equilibrium saturation binding)) [nM] | Active Receptor (%) (PfFNT wt-GFP) | obtained concentration of complexes in saturation binding (PfFNT wt-GFP) [nM] | Ki (PfFNT G107S-GFP; fluorescent probe BH267.meta-DY647 150 nM, competitor up to 10 µM, read-out: Ki Competitor) [nM] | concentration blocking FNT-type lactate transporters [1] | Kd (PfFNT wt-GFP) [nM] | Ki (PfFNT G107S-GFP) [nM] | Ki Competitor (PfFNT G107S-GFP; fluorescent probe BH267.meta-DY647 150 nM, competitor up to 10 µM) | co-localization on the plasma membrane (hsMCT4)
1 | O=C(/C=C(\O)C(F)(F)C(F)(F)F)c1cccnc1 [BH267.meta] | 72 | 100 | 6 | 417 ± 16 | sub-micromolar |  |  |  | 
2 | O=C(C=C(O)C(F)(F)C(F)(F)F)c1ccc(O)cc1 [BH296, 4,4,5,5,5-pentafluoro-3-hydroxy-1-(4-hydroxyphenyl)pent-2-en-1-one] |  |  | 3 |  |  | 67 | > 10000 | did not compete; also recorded: does not interfere | 
3 | CCN1/C(=C/C=C/C=C/C2=[N+](CC)c3ccc(S(=O)(=O)O)cc3C2(C)CCCC(=O)NCCOCCOCCOCCOCCC(=O)NCCCOc2ccc(C(=O)/C=C(\O)C(F)(F)C(F)(F)F)cn2)C(C)(C)c2cc(S(=O)(=O)[O-])ccc21 (stereo not shown) [BH267.meta-DY647] |  | 100 |  |  |  | 72 |  |  | 
4 | CCN1/C(=C/C=C/C=C/C2=[N+](CC)c3ccc(S(=O)(=O)O)cc3C2(C)CCCC(=O)NCCOCCOCCOCCOCCC(=O)NCCCOc2ccc(C(=O)/C=C(\O)C(F)(F)C(F)(F)F)cc2)C(C)(C)c2cc(S(=O)(=O)[O-])ccc21 (stereo not shown) [BH296-DY647] |  |  |  |  |  | 67 ± 6 |  |  | did not show any co-localization
